Measurements taken from article PMC12735872, “Development of ^18F/^11C-Labeled Pyrrolo-Pyridine/Pyrimidine LRRK2 Selective PET Radioligands” (Pharmaceuticals, 2025).

Assays:
LRRK2 [1] = assay: In vitro autoradiography, NHP brain slices; format: binding; conditions: baseline
Method: Whole brain hemispheres were sectioned into horizontal slices with a thickness of 100 µm using a Leica cryomacrocut system. The autoradiographic procedures followed the same protocols established in previous studies conducted in our laboratory. The whole-hemisphere sections of 100 micron thickness were incubated for 90 min at room temperature with their corresponding radiotracer (4 MBq/200 mL) in TRIS buffer (pH 7.4) containing sodium chloride (120 mM), potassium chloride (5 mM), calcium chloride (2 mM), and albumin (0.1% w/v). After incubation, sections were washed three times in the same buffer at room temperature for five minutes each, briefly dipped in ice-cold distilled water, dried, and then placed in the phosphor imaging plates. Binding density standards were prepared by serial dilution of the radioligand stock solution in the assay buffer. Readings were taken with the Fujifilm BAS-5000 (Fujifilm, Tokyo, Japan), while quantitative analysis was conducted with the Multi Gauge 3.2 image analysis software (Fujifilm, Tokyo, Japan). For blocking experiments, adjacent brain sections were co-incubated with LuAF66583 (0.1 µM or 10 µM). […] The thickness differed from human tissue (20 µm).

LRRK2 [2] = target: T1, LRRK2 (Homo sapiens, UniProt Q5S007); assay: In vitro autoradiography, human whole-hemisphere brain slices; format: binding; conditions: human brain slices, baseline
T1 construct: Human brains without pathological findings were acquired from the National Institute of Forensic Medicine; from tissue; host or cells: human post-mortem control brain, whole-hemisphere sections (100 µm)
Method: Human brains without pathological findings were acquired from the National Institute of Forensic Medicine at Karolinska Institutet in Stockholm, Sweden. These brains were obtained during forensic autopsies (designated as control brain) and were processed in a manner like previously described methods. […] The brain was removed, and its tissues were kept in −85 °C until the sectioning process. The whole brain hemispheric slices were subsequently maintained at −25 °C until the commencement of autoradiography procedures. […] The sectioning of the brain and the autoradiography experiments were performed at the Psychiatry section, Department of Neuroscience, Karolinska Institutet, Sweden.
Whole brain hemispheres were sectioned into horizontal slices with a thickness of 100 µm using a Leica cryomacrocut system. The autoradiographic procedures followed the same protocols established in previous studies conducted in our laboratory. The whole-hemisphere sections of 100 micron thickness were incubated for 90 min at room temperature with their corresponding radiotracer (4 MBq/200 mL) in TRIS buffer (pH 7.4) containing sodium chloride (120 mM), potassium chloride (5 mM), calcium chloride (2 mM), and albumin (0.1% w/v). After incubation, sections were washed three times in the same buffer at room temperature for five minutes each, briefly dipped in ice-cold distilled water, dried, and then placed in the phosphor imaging plates. Binding density standards were prepared by serial dilution of the radioligand stock solution in the assay buffer. Readings were taken with the Fujifilm BAS-5000 (Fujifilm, Tokyo, Japan), while quantitative analysis was conducted with the Multi Gauge 3.2 image analysis software (Fujifilm, Tokyo, Japan). For blocking experiments, adjacent brain sections were co-incubated with LuAF66583 (0.1 µM or 10 µM).

[3] = Stability of formulated radioligand in PBS (analytical HPLC); format: physicochemical; conditions: pH 7.4, for 120 min
Method: The radiochemical purity and stability of all three radioligands ([^11C]3, [^18F]1 and [^18F]2) were determined using analytical HPLC coupled with an XBridge analytical column (C18 5 µm, 4.6 × 150 mm particle size), a Merck-Hitachi L-7100 pump, an L-7400 UV detector, and a GM tube for radioactivity detection (VWR International). A mixture of acetonitrile (25%) and HCO2NH4 (0.1 M aq. solution) (75%) with a flow rate of 2 mL/min was used as HPLC isocratic mobile phase. The HPLC liquid flow was monitored using a UV absorbance detector (λ = 254 nm) in conjunction with a radioactive detector (BETA-flow, Beckman, Fullerton, CA, USA). All three radioligands were eluted with a retention time (tR) of 4.0–4.5 min, and the total run time of the HPLC program was 9 min. The identity of the radiolabeled compound was confirmed by co-injecting the corresponding authentic reference standard.

T1 sequence (Q5S007 whole entry): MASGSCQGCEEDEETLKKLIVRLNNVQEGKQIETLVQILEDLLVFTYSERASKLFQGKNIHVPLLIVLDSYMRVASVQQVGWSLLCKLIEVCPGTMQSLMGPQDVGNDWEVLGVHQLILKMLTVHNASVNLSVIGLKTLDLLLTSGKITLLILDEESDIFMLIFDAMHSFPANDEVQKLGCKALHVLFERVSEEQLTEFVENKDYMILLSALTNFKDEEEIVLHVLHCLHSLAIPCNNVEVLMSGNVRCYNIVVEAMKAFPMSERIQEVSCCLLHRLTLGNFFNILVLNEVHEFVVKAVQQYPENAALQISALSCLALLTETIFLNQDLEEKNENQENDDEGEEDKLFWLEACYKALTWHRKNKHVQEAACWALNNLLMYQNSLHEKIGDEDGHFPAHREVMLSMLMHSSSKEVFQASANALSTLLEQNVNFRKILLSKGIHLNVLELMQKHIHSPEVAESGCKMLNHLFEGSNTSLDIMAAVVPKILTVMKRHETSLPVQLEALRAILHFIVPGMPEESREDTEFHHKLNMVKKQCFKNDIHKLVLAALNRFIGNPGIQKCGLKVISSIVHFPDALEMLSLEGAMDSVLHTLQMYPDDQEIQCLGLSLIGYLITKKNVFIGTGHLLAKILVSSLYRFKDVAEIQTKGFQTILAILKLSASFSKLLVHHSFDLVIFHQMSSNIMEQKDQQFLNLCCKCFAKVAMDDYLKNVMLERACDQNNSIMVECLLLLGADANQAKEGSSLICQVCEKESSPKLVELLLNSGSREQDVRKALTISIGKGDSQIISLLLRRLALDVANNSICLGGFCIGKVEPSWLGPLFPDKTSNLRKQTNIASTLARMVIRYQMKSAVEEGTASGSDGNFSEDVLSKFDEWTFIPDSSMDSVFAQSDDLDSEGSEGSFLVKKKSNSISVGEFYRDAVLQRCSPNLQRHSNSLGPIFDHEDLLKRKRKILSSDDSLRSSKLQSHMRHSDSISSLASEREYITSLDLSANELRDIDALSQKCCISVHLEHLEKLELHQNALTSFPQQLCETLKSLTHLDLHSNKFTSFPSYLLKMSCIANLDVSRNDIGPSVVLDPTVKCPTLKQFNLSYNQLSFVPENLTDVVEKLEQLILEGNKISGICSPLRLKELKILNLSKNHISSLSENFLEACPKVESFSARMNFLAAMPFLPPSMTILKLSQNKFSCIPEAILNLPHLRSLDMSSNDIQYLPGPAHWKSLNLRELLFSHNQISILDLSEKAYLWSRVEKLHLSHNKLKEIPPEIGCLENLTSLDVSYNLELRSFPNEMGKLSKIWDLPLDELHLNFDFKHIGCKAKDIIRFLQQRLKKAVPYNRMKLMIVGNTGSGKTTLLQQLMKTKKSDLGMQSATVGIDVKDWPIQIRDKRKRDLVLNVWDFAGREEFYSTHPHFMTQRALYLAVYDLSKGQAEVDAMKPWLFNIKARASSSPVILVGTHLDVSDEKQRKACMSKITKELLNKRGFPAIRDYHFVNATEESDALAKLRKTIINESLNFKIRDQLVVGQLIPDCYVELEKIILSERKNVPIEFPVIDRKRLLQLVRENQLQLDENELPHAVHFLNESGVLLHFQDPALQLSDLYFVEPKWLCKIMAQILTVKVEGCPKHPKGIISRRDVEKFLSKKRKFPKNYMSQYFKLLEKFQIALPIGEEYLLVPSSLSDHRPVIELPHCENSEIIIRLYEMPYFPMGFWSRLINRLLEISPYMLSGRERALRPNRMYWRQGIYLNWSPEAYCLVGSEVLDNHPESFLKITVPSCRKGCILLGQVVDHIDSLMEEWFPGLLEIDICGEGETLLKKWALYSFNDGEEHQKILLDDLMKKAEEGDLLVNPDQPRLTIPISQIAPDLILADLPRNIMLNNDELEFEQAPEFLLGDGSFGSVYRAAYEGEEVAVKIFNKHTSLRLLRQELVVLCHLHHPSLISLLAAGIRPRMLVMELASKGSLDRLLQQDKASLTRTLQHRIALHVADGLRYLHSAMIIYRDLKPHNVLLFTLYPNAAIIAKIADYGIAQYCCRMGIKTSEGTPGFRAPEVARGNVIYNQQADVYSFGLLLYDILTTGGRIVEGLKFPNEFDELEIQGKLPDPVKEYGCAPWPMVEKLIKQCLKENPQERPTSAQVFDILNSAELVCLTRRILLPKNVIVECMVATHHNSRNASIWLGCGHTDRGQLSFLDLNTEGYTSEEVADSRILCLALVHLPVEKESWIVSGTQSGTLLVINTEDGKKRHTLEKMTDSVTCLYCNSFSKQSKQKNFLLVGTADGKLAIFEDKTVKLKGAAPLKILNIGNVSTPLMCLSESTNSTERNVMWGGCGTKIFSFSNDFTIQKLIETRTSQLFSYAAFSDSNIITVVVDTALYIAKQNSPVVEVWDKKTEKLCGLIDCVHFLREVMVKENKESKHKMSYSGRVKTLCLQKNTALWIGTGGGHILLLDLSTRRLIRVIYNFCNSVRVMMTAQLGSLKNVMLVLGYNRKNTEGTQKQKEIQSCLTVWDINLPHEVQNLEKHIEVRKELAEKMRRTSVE

| Structure (SMILES) | Binding of radioligand in brain slices (ARG) (LRRK2 [1]) | Binding of radioligand in brain slices (ARG) (LRRK2 [2]) | Stability in PBS buffer [3] |
| --- | --- | --- | --- |
| C[C@@H]1C[C@@H]([18F])CN1c1c(C#N)c2c(N)nccc2n1C [[^18F]1, 4-Amino-2-((2R,4R)-4-[^18F]fluoro-2-methylpyrrolidin-1-yl)-1-methyl-1H-pyrrolo[3,2-c]pyridine-3-carbonitrile] | clear binding | clear binding | demonstrated stability |
| C[C@@H]1C[C@@H]([18F])CN1c1c(C#N)c2c(N)ncnc2n1C [[^18F]2, 4-Amino-6-((2R,4R)-4-[^18F]fluoro-2-methyl Pyrrolidin-1-yl)-7-methyl-7H-pyrrolo[2,3-d]pyrimidine-5-carbonitrile] | displayed binding | displayed binding | demonstrated stability |
